In patent US9895352B2, “Indolinone compounds and uses thereof” (Oncternal Therapeutics, Inc., priority 2014, dated 2018):
Several values for one entry are separate records, joined by “and”; a condition that tells them apart may be missing. Equal values may be shown once. Read-outs that look alike come from different tables or passages of the source.

Tests used:
[1] = dog liver microsome, no cofactor, 60 min
[2] = human liver microsome, no cofactor, 60 min
BxPC3 = assay: CCK-8 tetrazolium tumor cell growth inhibition, BxPC3; type: cell-based; details: Homo sapiens, BXPC-3; BxPC3, Pancreas, increased FLI1
Protocol: (§1) A modified tetrazolium salt assay using the CCK-8 kit (Sigma-Aldrich; St Louis, Mo.) was used to measure the inhibition of human tumor cell growth. Tumor cells (5000-7500 per well) were added to 96 well plates and allowed to attach for 4-5 hours. Compounds were serially diluted and added in triplicate at a concentration of 0.02 to 5 μM. DMSO was included as a vehicle control. Cells were incubated in the presence of compound for 3 days. After incubation CCK-8 reagent was added to each well and incubated for 2-4 hours. Viable cells were quantitated spectrophotometrically at a wavelength of 450 nm. Percent viability of each sample was calculated from the A450 values as follows: % viability=(A450 nm sample/A450 nm DMSO-treated cells×100). […] IC50 activities of particular compounds were determined using SKES cells (Ewing Sarcoma cell line).

[3] = Pharmacokinetics after IV and oral administration; type: in vivo; details: BALB/c mice or Sprague Dawley rats; for Cmax / Tmax / bioavailability / half-life: plasma; for Tmax: read-out: Tmax
Protocol: (§2) Certain pharmacokinetics parameters were determined for certain compounds in vivo for intravenous and oral administration. Briefly, compounds were formulated and administered using IV bolus, continuous IV infusion or oral administration. Blood was collected at multiple time points over 24 hours and processed into plasma. Plasma was analyses for parent using LC/MS/MS. Certain parameters for certain compounds were obtained in duplicate.

PANC1 = assay: CCK-8 tetrazolium tumor cell growth inhibition, PANC1; type: cell-based; details: Homo sapiens, PANC-1; PANC1, Pancreas, no ETS rearrangement
Protocol: as §1

A4573 tumor cells [4] = assay: A4573 xenograft study in mice; type: in vivo; details: A4573 tumors, relative to vehicle control
TC71 = assay: CCK-8 tetrazolium tumor cell growth inhibition, TC71; type: cell-based; details: Homo sapiens, TC-71; TC71, ES, EWS-FLI1 Type 1
Protocol: as §1

MCF7 = assay: CCK-8 tetrazolium tumor cell growth inhibition, MCF7; type: cell-based; details: Homo sapiens; MCF7, Breast, no ETS rearrangement
Protocol: as §1

in vitro [5] = details: rat
in vitro [6] = details: dog
[7] = rat liver microsome, no cofactor, 60 min
[8] = system: SKES cells (Ewing Sarcoma cell line); assay: CCK-8 tetrazolium tumor cell growth inhibition, SKES; type: cell-based; details: Homo sapiens
Protocol: as §1

[9] = mouse liver microsome, no cofactor, 60 min
PC3 = assay: CCK-8 tetrazolium tumor cell growth inhibition, PC3; type: cell-based; details: Homo sapiens, PC-3; PC3, Prostate, no ETS rearrangement
Protocol: as §1

A4573 tumor cells [10] = assay: similar rat xenograft study; type: in vivo; details: compared to the vehicle control
LNCap = assay: CCK-8 tetrazolium tumor cell growth inhibition, LNCap; type: cell-based; details: Homo sapiens, Prostate, rearranged ETV1
Protocol: as §1

A4573 = assay: CCK-8 tetrazolium tumor cell growth inhibition, A4573; type: cell-based; details: Homo sapiens; A4573, ES, EWS-FLI1 Type 3
Protocol: as §1

MDA-MB-231 = assay: CCK-8 tetrazolium tumor cell growth inhibition, MDA-MB-231; type: cell-based; details: Homo sapiens; MDA-MB-231, Breast, increased ETV1
Protocol: as §1

[11] = Half-life in mouse hepatocytes; type: in vitro ADME; details: read-out: Half life of cmpds
Protocol: (§3) In another study, metabolism of compounds in hepatocytes from various species was examined. Hepatocytes were contacted with a compound, and the half-life of the compound was determined.

[12] = Half-life in dog hepatocytes; type: in vitro ADME; details: read-out: Half life of cmpds
Protocol: as §3

[13] = Pharmacokinetics, continuous infusion study in rat; type: in vivo; details: for Vd / clearance / half-life: plasma, iv
Protocol: as §2

[14] = Pharmacokinetics, continuous infusion study in dog; type: in vivo; details: for Vd / clearance / half-life: plasma, iv
Protocol: as §2

in vitro [15] = details: mouse
[16] = Half-life in rat hepatocytes; type: in vitro ADME; details: read-out: Half life of cmpds
Protocol: as §3

[17] = Half-life in human hepatocytes; type: in vitro ADME; details: read-out: Half life of cmpds
Protocol: as §3

in vitro [18] = details: human liver microsomes
[19] = 20 mg/kg po, labrasol/tetraglycol 9:1
[20] = 20 mg/kg po, labrasol:tetraglycol:water 72:8:20
[21] = iv, 5 mg/kg, 5 mg/kg IV, captisol
[22] = po, 20 mg/kg, 20 mg/kg po, labrasol/tetraglycol 9:1
[23] = po, 20 mg/kg, 20 mg/kg po, labrasol:tetraglycol:water 72:8:20
[24] = 72 h, SKES cells, 3 days with compound, CCK-8 (TABLE 3)
[25] = iv, 10 mg/kg, 10 mg/kg IV, captisol
[26] = po, 25 mg/kg, 25 mg/kg po, labrasol:tetraglycol:water 72:8:20
[27] = po, 100 mg/kg, 100 mg/kg po, PEG-400/tween
[28] = po, 100 mg/kg, 100 mg/kg po, labrasol/tetraglycol

SMILES: COc1ccc(C(=O)CC2(O)C(=O)Nc3c(Cl)ccc(Cl)c32)cc1 (single isomer, unassigned) [Cmpd 2, 4,7-Dichloro-3-hydroxy-3-[2-(4-methoxyphenyl-2-oxoethyl)]-1,3-dihydroindol-2-one]
- Remaining (NCF = 60 min) [1]: 100.6%
- Remaining (NCF = 60 min) [2]: 112.1%
- IC50 (BxPC3): < 5 µM
- AUC ([3]; 5 mg/kg IV, captisol): 1991 h * (ng/mL)
- % F [3, 19]: 49%
- AUC [3, 19]: 3896 h * (ng/mL) and 3890 h * (ng/mL)
- % F [3, 20]: 57%
- AUC [3, 20]: 4574 h * (ng/mL)
- Cmax [3, 21]: 9380 ng/mL
- Tmax [3, 21]: 0.033 h
- Cmax [3, 22]: 2240 ng/mL
- bioavailability [3, 22]: 40%
- half-life [3, 22]: 1.6 h
- Tmax [3, 22]: 1 h
- Cmax [3, 23]: 2840 ng/mL
- bioavailability [3, 23]: 47%
- half-life [3, 23]: 1.5 h
- Tmax [3, 23]: 1 h
- IC50 (PANC1): > 5 µM
- tumor growth inhibition (TGI) (A4573 tumor cells [4]; 200 mg/kg bid oral): did not show TGI
- IC50 (TC71): < 5 µM
- IC50 (MCF7): > 5 µM
- half-life (in vitro [5]; microsomes): 3.8 min
- half-life (in vitro [6]; microsomes): 0.505 h
- Remaining (NCF = 60 min) [7]: 92.7%
- IC50 [8, 24]: < 5 µM
- IC50 ([8]; SKES, ES, EWS-FLI1 Type 2): < 5 µM
- Remaining (NCF = 60 min) [9]: 90.2%
- IC50 (PC3): > 5 µM
- tumor growth inhibition (TGI) (A4573 tumor cells [10]): 87%
- IC50 (LNCap): < 5 µM
- IC50 (A4573): < 5 µM
- IC50 (MDA-MB-231): < 5 µM

SMILES: O=C(CC1(O)C(=O)Nc2c(Cl)ccc(Cl)c21)c1ccc(C2CC2)cc1 (single isomer, unassigned) [Cmpd 14, 4,7-Dichloro-3-(2-(4-cyclopropylphenyl)-2-oxoethyl)-3-hydroxyindolin-2-one]
- Remaining (NCF = 60 min) [1]: 97.1%
- Remaining (NCF = 60 min) [2]: 104.5%
- IC50 (BxPC3): < 5 µM
- AUC ([3]; 5 mg/kg IV, captisol): 4131 h * (ng/mL)
- AUC ([3]; 10 mg/kg IV, captisol): 6059 h * (ng/mL)
- AUC ([3]; 25 mg/kg po, labrasol:tetraglycol:water 72:8:20): 13152 h * (ng/mL)
- AUC ([3]; 100 mg/kg po, PEG-400/tween): 92219 h * (ng/mL)
- AUC ([3]; 100 mg/kg po, labrasol/tetraglycol): 146167 h * (ng/mL)
- Cmax [3, 21]: 10900 ng/mL
- half-life [3, 21]: 0.8 h
- Tmax [3, 21]: 0.03 h
- Cmax [3, 25]: 39800 ng/mL
- half-life [3, 25]: 1.43 h
- Tmax [3, 25]: 0.03 h
- Cmax [3, 26]: 2770 ng/mL
- bioavailability [3, 26]: 64%
- half-life [3, 26]: 3.1 h
- Tmax [3, 26]: 1 h
- Cmax [3, 27]: 26000 ng/mL
- bioavailability [3, 27]: 100%
- half-life [3, 27]: 3.83 h
- Tmax [3, 27]: 0 h
- Cmax [3, 28]: 33000 ng/mL
- bioavailability [3, 28]: 100%
- half-life [3, 28]: 7.71 h
- Tmax [3, 28]: 2 h
- IC50 (PANC1): > 5 µM
- tumor growth inhibition (TGI) (A4573 tumor cells [4]; 100 mg/kg bid oral): 57%
- IC50 (TC71): < 5 µM
- half-life [11]: 1.05 h
- IC50 (MCF7): > 5 µM
- half-life (in vitro [5]; microsomes): 2.8 min
- half-life [12]: 0.338 h
- Css(3-24 h) ([13]; 24 mg/kg/day): 344 ng/mL and 0.91 μM
- MRT24-inf ([13]; 24 mg/kg/day): 1.11 h
- Css(3-24 h) ([13]; 96 mg/kg/day): 1376 ng/mL and 3.7 μM
- MRT24-inf ([13]; 96 mg/kg/day): 1.73 h
- Vd ([13]; 24 mg/kg/day): 3.46 L/kg
- clearance ([13]; 24 mg/kg/day): 48.7 mL/min/kg
- half-life ([13]; 24 mg/kg/day): 0.824 h
- Vd ([13]; 96 mg/kg/day): 4.23 L/kg
- clearance ([13]; 96 mg/kg/day): 49.6 mL/min/kg
- half-life ([13]; 96 mg/kg/day): 1 h
- Remaining (NCF = 60 min) [7]: 97.6%
- Css(3-24 h) ([14]; 10 mg/kg/day): 210 ng/mL and 0.56 μM
- MRT24-inf ([14]; 10 mg/kg/day): 2.5 h
- Css(3-24 h) ([14]; 25 mg/kg/day): 466 ng/mL and 1.24 μM
- MRT24-inf ([14]; 25 mg/kg/day): 2.2 h
- Vd ([14]; 10 mg/kg/day): 5.64 L/kg
- clearance ([14]; 10 mg/kg/day): 33.6 mL/min/kg
- half-life ([14]; 10 mg/kg/day): 1.9 h
- Vd ([14]; 25 mg/kg/day): 5.66 L/kg
- clearance ([14]; 25 mg/kg/day): 37.3 mL/min/kg
- half-life ([14]; 25 mg/kg/day): 1.7 h
- Remaining (NCF = 60 min) [9]: 102.0%
- IC50 (PC3): > 5 µM
- tumor growth inhibition (TGI) (A4573 tumor cells [10]): 53%
- half-life (in vitro [15]; microsomes): 0.385 h
- half-life [16]: 0.457 h
- IC50 (LNCap): < 5 µM
- IC50 (A4573): < 5 µM
- half-life [17]: 1.26 h
- IC50 (MDA-MB-231): < 5 µM

SMILES: O=C(CC1(O)C(=O)Nc2c(Cl)ccc(Cl)c21)c1ccc(N2CCCC2)cc1 (single isomer, unassigned) [Cmpd 18, 4,7-Dichloro-3-hydroxy-3-(2-oxo-2-(4-(pyrrolidin-1-yl)phenyl)ethyl)indolin-2-one]
- Remaining (NCF = 60 min) [2]: 99.4%
- AUC ([3]; 5 mg/kg IV, captisol): 3738 h * (ng/mL)
- AUC [3, 19]: 7497 h * (ng/mL)
- AUC [3, 20]: 11029 h * (ng/mL)
- Cmax [3, 21]: 14300 ng/mL
- half-life [3, 21]: 0.8 h
- Tmax [3, 21]: 0.033 h
- Cmax [3, 22]: 3220 ng/mL
- bioavailability [3, 22]: 50%
- half-life [3, 22]: 1.4 h
- Tmax [3, 22]: 1 h
- Cmax [3, 23]: 6420 ng/mL
- bioavailability [3, 23]: 74%
- half-life [3, 23]: 0.9 h
- Tmax [3, 23]: 1 h
- half-life [11]: 1 h
- half-life (in vitro [5]; liver microsomes): 1.3 min
- half-life [12]: 0.51 h
- half-life (in vitro [6]; liver microsomes): 0.402 h
- half-life (in vitro [18]): 0.383 h
- IC50 [8, 24]: < 5 µM
- IC50 ([8]; SKES, ES, EWS-FLI1 Type 2): < 5 µM
- half-life (in vitro [15]; liver microsomes): 0.16 h
- half-life [16]: 0.313 h
- half-life [17]: 1.06 h
